Read-outs that look alike come from different tables or passages of the source.
Columns and labels:
Pyricularia oryzae [1] = assay type: in vivo
Sphaerotheca fuliginea = test: Example A: Sphaerotheca test (cucumber) / preventive; assay type: in vivo
Venturia inaequalis = test: Example I: Venturia test (apples) / preventive; details: 100 ppm of active ingredient, preventive spray, evaluated 10 days after inoculation
Experimental: After the spray coating has dried on, the plants are inoculated with an aqueous conidia suspension of the causal agent of apple scab (Venturia inaequalis) and then remain for 1 day in an incubation cabinet at approximately 20° C. and a relative atmospheric humidity of 100%.
The plants are then placed in a greenhouse at approximately 21° C. and a relative atmospheric humidity of approximately 90%.
The test is evaluated 10 days after the inoculation.

[2] = Determination of log P values by HPLC on a reverse phase column (C18), EEC-Directive 79/831 Annex V.A8 (Methods A, B, C); assay type: physicochemical; details: for chromatographic logP: reverse phase C18 HPLC column
Summary of the method: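 Three C18 chromatographic methods following EEC-Directive 79/831 Annex V.A8 gave the logP values. Method C (UPLC, 2.1 mm column) ran at 40 °C and 0.8 mL/min with a 3.25 min 10–95% acetonitrile gradient. Methods A and B both ran at 55 °C and 2.0 mL/min, with gradients of 10–95% in 4.25 min and 5–95% in 1.70 min.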

Leptosphaeria nodorum = test: Example C: Leptosphaeria test (wheat) / preventive; assay type: in vivo
Uromyces appendiculatus = test: Example B: Uromyces test (beans) / preventive; assay type: in vivo
Plasmopara viticola = test: Example H: Plasmopara test (grapevines) / preventive; assay type: in vivo
Pyrenophora teres [3] = test: Example D: Pyrenophora test (barley) / preventive; assay type: in vivo
Septoria tritici = test: Example J: Septoria tritici test (wheat) / preventive; assay type: in vivo
[4] = test system: DON/Acetyl-DON production by Fusarium graminearum; test: microbe, parasite or virus in culture; assay type: cell-based
Phytophthora infestans = assay type: in vivo
[5] = test system: Fusarium nivale (var. majus); test: Example K: Fusarium nivale (var. majus) test (wheat) / preventive; assay type: in vivo; details: 500 ppm of active ingredient, preventive spray, evaluated 5 days after inoculation
Experimental: After the spray coating has been dried, the plants are slightly injured by using a sandblast and afterwards they are sprayed with a conidia suspension of Fusarium nivale (var. majus).
The test is evaluated 5 days after the inoculation.

Puccinia recondita = test: Example E: Puccinia test (wheat) / preventive; assay type: in vivo
Fusarium graminearum [6] = test: microbe, parasite or virus in culture; assay type: cell-based
Fusarium graminearum [7] = assay type: in vivo
Pyricularia oryzae [8] = assay type: in vivo; remark: listed apart in the source
Pyrenophora teres [9] = details: in vivo
[10] = 500 ppm of active ingredient, wheat, preventive spray, evaluated 7-9 days after inoculation
[11] = Method A: HPLC, reverse phase C18, acetonitrile (0.1% formic acid)/water (0.09% formic acid) gradient
[12] = Method B (HPLC, reverse phase C18)
[13] = Method C (HPLC, reverse phase C18)

Row | SMILES | efficacy (Venturia inaequalis) [%] | efficacy [5] [%] | efficacy (Pyricularia oryzae [1]; in vivo) [%] | efficacy (Sphaerotheca fuliginea; in vivo) [%] | efficacy (Leptosphaeria nodorum; in vivo) [%] | efficacy (Uromyces appendiculatus; in vivo) [%] | efficacy (Plasmopara viticola; in vivo) [%] | efficacy (Pyrenophora teres [3]; in vivo) [%] | efficacy (Septoria tritici; in vivo) [%] | Inhibition of DON/AcDON in % ([4]; at 50 μM) [%] | efficacy (Phytophthora infestans; in vivo) [%] | efficacy (Puccinia recondita; in vivo) [%] | Growth inhibition of Fusarium graminearum in % (Fusarium graminearum [6]; at 50 μM) [%] | efficacy (Fusarium graminearum [7]; in vivo) [%] | LogP [2, 12] | also measured
1 | O=C(Nc1cc(-c2c(-c3ccc(F)cc3)nn3c2OCCC3)ccn1)C1CC1 [Example 4, N-{4-[2-(4-fluorophenyl)-6,7-dihydro-5H-pyrazolo[5,1-b][1,3]oxazin-3-yl]pyridin-2-yl}cyclo-propanecarboxamide] | 95 | 100 |  |  |  |  |  |  |  |  |  |  |  |  |  | efficacy (Pyricularia oryzae [1]; 500 ppm of active ingredient, rice, preventive spray, evaluated 7 days after inoculation): 100%; efficacy (Sphaerotheca fuliginea; 500 ppm of active ingredient, cucumber, preventive spray, evaluated 7 days after inoculation): 100%; chromatographic logP ([2]; Method B (HPLC, reverse phase C18), read-out: LogP): 1.47; chromatographic logP ([2]; pH 2.7, values in the synthesis examples, HPLC, reverse phase C18, read-out: log P (pH 2.7)): 1.39; efficacy (Leptosphaeria nodorum; [10]): 90%; efficacy (Uromyces appendiculatus; 500 ppm of active ingredient, beans, preventive spray, evaluated 6-8 days after inoculation): 90%; efficacy (Plasmopara viticola; 100 ppm of active ingredient, grapevines, preventive spray, evaluated 6 days after inoculation): 100%; efficacy (Pyrenophora teres [3]; 500 ppm of active ingredient, barley, preventive spray, evaluated 7-9 days after inoculation): 100%; efficacy (Septoria tritici; 500 ppm of active ingredient, wheat, preventive spray, evaluated 21 days after inoculation): 80%; inhibition at 50 µM ([4]; Fusarium graminearum, at 50 μM, read-out: Inhibition of DON/AcDON in %): 99%; efficacy (Phytophthora infestans; 100 ppm of active ingredient, tomatoes, preventive spray, evaluated 3 days after inoculation): 94%; efficacy (Puccinia recondita; [10]): 100%; inhibition at 50 µM (Fusarium graminearum [6]; Fusarium graminearum, read-out: Growth inhibition of Fusarium graminearum in %): 69%; efficacy (Fusarium graminearum [7]; 500 ppm of active ingredient, barley, preventive spray, evaluated 5 days after inoculation): 100%
2 | CCC(=O)Nc1cc(-c2c(-c3ccc(F)cc3)nn3c2OCCC3)ccn1 [Example 5] | 98 | 100 | 100 | 95 | 90 | 93 | 100 | 95 | 92 | 100 | 95 | 100 | 62 | 100 |  | LogP [2, 11]: 1.46
3 | CCOC(=O)Nc1cc(-c2c(-c3ccccc3)nn3c2OCCC3)ccn1 [Example 9] | 100 | 93 | 94 | 95 | 95 | 94 | 94 | 100 | 80 | 100 | 95 | 100 | 100 | 100 | 1.51 | 
4 | CCC(C)C(=O)Nc1cc(-c2c(-c3ccccc3)nn3c2OCCC3)ccn1 (stereo not shown) [Example 10] | 99 | 100 | 94 | 100 | 80 | 94 | 94 | 80 | 86 | 100 | 95 | 100 | 95 | 90 | 1.63 | 
5 | CC(C)C(=O)Nc1cc(-c2c(-c3ccc(F)cc3)nn3c2OCCC3)ccn1 [Example 22] | 99 | 100 | 94 | 100 | 90 | 94 | 100 | 95 | 100 | 100 | 95 | 100 | 99 | 100 | 1.54 | 
6 | O=C(Nc1cc(-c2c(-c3ccc(F)cc3)nn3c2OCCC3)ccn1)C1CCOCC1 [Example 28] | 98 | 100 | 94 | 100 | 95 | 94 | 92 | 95 | 88 | 99 | 95 | 100 | 94 | 86 | 1.37 | 
7 | CCC(=O)Nc1cc(-c2c(-c3ccc(F)cc3F)nn3c2OCCC3)ccn1 [Example 35] | 100 | 100 | 94 |  | 80 | 92 | 95 | 95 | 100 | 99 | 99 | 100 | 100 | 100 | 1.34 | 
8 | CC(C)C(=O)Nc1cc(-c2c(-c3ccc(F)cc3F)nn3c2OCCC3)ccn1 [Example 37] | 100 | 100 | 94 | 100 | 70 | 94 | 100 | 95 | 88 |  | 95 | 100 |  | 100 | 1.6 | 
9 | CCC(=O)N(C(=O)CC)c1cc(-c2c(-c3ccc(F)cc3)nn3c2OCCC3)ccn1 [Example 53] | 100 | 100 | 90 | 95 | 90 | 74 | 98 | 100 | 75 | 100 | 95 | 95 | 79 | 100 |  | LogP [2, 11]: 2.74
10 | CC(C)C(=O)Nc1cc(-c2c(-c3ccc(F)cc3)nn3c2OCCC3C)ccn1 (stereo not shown) [Example 62] | 100 | 100 | 95 | 100 |  | 78 | 100 | 95 | 75 | 99 | 95 | 90 | 86 | 100 |  | LogP [2, 11]: 1.86
11 | O=C(Nc1cc(-c2c(-c3ccc(F)cc3)nn3c2OCCC3)ccn1)C1C2CCCCC21 (stereo not shown) [Example 65] |  |  |  |  |  |  |  |  |  |  |  |  |  |  | 2.13 | protection (% of efficacy) (Pyricularia oryzae [8]; in vivo): 80%; protection (% of efficacy) (Pyrenophora teres [9]): 71%
12 | CCC(=O)Nc1cc(-c2c(-c3ccc(F)cc3)nn3c2OC[Si](C)(C)C3)ccn1 [Example 77] | 96 | 90 | 90 | 95 | 94 | 94 | 100 | 95 | 71 |  | 100 | 100 |  | 100 |  | LogP [2, 13]: 2.15; Inhibition of DON/AcDON in % ([4]; 50 µM): 100%; Growth inhibition of Fusarium graminearum in % (Fusarium graminearum [6]; 50 µM): 91%
13 | CC(=O)Nc1cc(-c2c(-c3cccs3)nn3c2OC[Si](C)(C)C3)ccn1 [Example 85] | 97 | 100 | 90 |  | 90 |  | 97 | 95 | 86 |  | 95 | 78 |  | 71 |  | LogP [2, 13]: 1.74; Inhibition of DON/AcDON in % ([4]; 50 µM): 99%
14 | C[Si]1(C)COc2c(-c3ccnc(N)c3)c(-c3cccs3)nn2C1 [Example 89, 4-[3,3-dimethyl-7-(2-thienyl)-3,4-dihydro-2H-pyrazolo[5,1-b][1,3,5]oxazasilin-8-yl]pyridin-2-amine] |  |  |  |  |  |  |  |  |  |  |  |  |  |  |  | protection (% of efficacy) (Pyricularia oryzae [8]; dose of 500 ppm, rice plants, grading 6 days after contamination): 75%; chromatographic logP ([2]; Method C (HPLC, reverse phase C18), read-out: LogP): 1.55; chromatographic logP ([2]; pH 2.3, intermediates of formula [II], HPLC, reverse phase C18, read-out: LogP (pH 2.3)): 1.55
15 | CCC(=O)N(C(=O)CC)c1cc(-c2c(-c3ccc(F)cc3F)nn3c2OCCC3)ccn1 [Example 95] |  |  |  |  |  |  |  |  |  | 97 |  |  | 77 |  |  | protection (% of efficacy) (Pyricularia oryzae [8]; in vivo): 83%; LogP [2, 11]: 2.68
